# Assays:
# [1] = Partition coefficient (logP); assay type: physicochemical; details: octanol/water
# [2] = test system: MT4; assay: Cytotoxicity against MT-4 (human leukemia) cells.; assay type: functional
# [3] = test system: Human immunodeficiency virus 1; assay: Inhibition of HIV-1 (BRU) cytopathicity in MT-4 (human leukemia).; assay type: functional, organism-based
# [4] = species: Homo sapiens; assay: Time required for 50%hydrolysis of prodrug to AZT in normal human serum was determined; assay type: ADME, organism-based
# [5] = Selectivity index (CC50/EC50).; assay type: functional
# [6] = (§1) Cytotoxicity against human peripheral blood mononuclear cells.; assay type: functional
# [7] = as §1; assay type: functional; remark: listed apart in the source
# [8] = test system: Human immunodeficiency virus 1; assay: Inhibition of HIV-1 (IIIB) cytopathicity in human peripheral blood mononuclear cells.; assay type: functional, organism-based
# [9] = test system: Human immunodeficiency virus 1; assay: Inhibition of HIV-1 (BaL) cytopathicity in human peripheral blood mononuclear cells.; assay type: functional, organism-based
SMILES,logP ([1]; read-out: logP),CC50 [2],EC50 [3],T1/2 [4],SI [5],logP [1],CC50 [6],CC50 [7],EC50 [8],EC50 [9]
Cc1cn(C2CC(N=[N+]=[N-])C(COC(=O)OCCCCCCCCO)O2)c(=O)[nH]c1=O (stereo not given),1.14,> 50000 nM,2.5 nM,2 min,> 20000,,,,,
Cc1cn(C2CC(N=[N+]=[N-])C(COC(=O)OCCO)O2)c(=O)[nH]c1=O (stereo not given),,> 50000 nM,10 nM,< 1 min,> 5000,-1.2,,,,
Cc1cn(C2CC(N=[N+]=[N-])C(COC(=O)OCCCCCO)O2)c(=O)[nH]c1=O (stereo not given),-0.45,> 50000 nM,10 nM,16 min,> 5000,,,,,
Cc1cn(C2CC(N=[N+]=[N-])C(COC(=O)CCCN)O2)c(=O)[nH]c1=O (stereo not given),-0.9,> 50000 nM,20 nM,26 min,> 2500,,,,,
Cc1cn(C2CC(N=[N+]=[N-])C(COC(=O)OCCCN)O2)c(=O)[nH]c1=O (stereo not given),-0.93,> 50000 nM,20 nM,8 min,> 2500,,,,,
Cc1cn(C2CC(N=[N+]=[N-])C(COC(=O)NCCCN)O2)c(=O)[nH]c1=O (stereo not given),-1.19,> 50000 nM,10 nM,> 2880 min,> 5000,,,,,
Cc1cn(C2CC(N=[N+]=[N-])C(COC(=O)OCCCCCCO)O2)c(=O)[nH]c1=O (stereo not given),0.08,> 50000 nM,10 nM,7 min,> 5000,,,,,
Cc1cn(C2CC(N=[N+]=[N-])C(COC(=O)CCCC(=O)OC(C)(C)C)O2)c(=O)[nH]c1=O (stereo not given),1.17,> 50000 nM,5 nM,33 min,> 10000,,,,,
Cc1cn([C@H]2C[C@H](N=[N+]=[N-])[C@@H](CO)O2)c(=O)[nH]c1=O [ZIDOVUDINE],,> 100000 nM,25 nM,,,,11000 nM,8000 nM,7.5 nM,11 nM
Cc1cn(C2CC(N=[N+]=[N-])C(COC(=O)OCCCC(=O)O)O2)c(=O)[nH]c1=O (stereo not given),-0.55,> 50000 nM,5 nM,780 min,> 10000,,,,,
Cc1cn(C2CC(N=[N+]=[N-])C(COC(=O)NCCCO)O2)c(=O)[nH]c1=O (stereo not given),-1.24,> 50000 nM,100 nM,> 2880 min,> 500,,,,,
Cc1cn(C2CC(N=[N+]=[N-])C(COC(=O)OCCCC(=O)OC(C)(C)C)O2)c(=O)[nH]c1=O (stereo not given),1.14,> 50000 nM,5 nM,16 min,> 10000,,,,,
Cc1cn(C2CC(N=[N+]=[N-])C(COC(=O)OCCCO)O2)c(=O)[nH]c1=O (stereo not given),,> 50000 nM,10 nM,10 min,> 5000,-0.98,,,,
Cc1cn(C2CC(N=[N+]=[N-])C(COC(=O)NCCCC(=O)O)O2)c(=O)[nH]c1=O (stereo not given),-0.81,> 50000 nM,100 nM,> 2880 min,> 500,,,,,
Cc1cn(C2CC(N=[N+]=[N-])C(COC(=O)NCCCC(=O)OC(C)(C)C)O2)c(=O)[nH]c1=O (stereo not given),0.88,> 50000 nM,10 nM,> 2880 min,> 5000,,,,,
CCCCOC(=O)OCC1OC(n2cc(C)c(=O)[nH]c2=O)CC1N=[N+]=[N-] (stereo not given),1.02,> 50000 nM,8 nM,9 min,> 6250,,,,,
Cc1cn(C2CC(N=[N+]=[N-])C(COC(=O)OCCCCO)O2)c(=O)[nH]c1=O (stereo not given),,> 50000 nM,0.5 nM,30 min,,-0.68,24000 nM,29000 nM,0.78 nM,0.78 nM
Cc1cn(C2CC(N=[N+]=[N-])C(COC(=O)CCCC(=O)O)O2)c(=O)[nH]c1=O (stereo not given),,> 50000 nM,7 nM,1800 min,> 7140,-0.52,,,,
Cc1cn(C2CC(N=[N+]=[N-])C(COC(=O)CCCO)O2)c(=O)[nH]c1=O (stereo not given),-0.95,,,,,,,,,
